Tested on: maternal liver
Test: Maternal liver histopathology (H&E)
Assay type: in vivo, mouse (CD-1)
Conditions: for CA, any severity: % / CA, any severity: N / CA, marked: % / CA, marked: N / CA, minimal to mild: % / CA, minimal to mild: N / CA, moderate: % / CA, moderate: N / Focal regions of classic necrosis: % / Focal regions of classic necrosis: N / Increase in cell death: % / Increase in cell death: N / Increase in mitotic figures: % / Increase in mitotic figures: N / Vacuolation, any severity: % / Vacuolation, any severity: N / Vacuolation, mild: % / Vacuolation, mild: N / Vacuolation, minimal: % / Vacuolation, minimal: N / Vacuolation, moderate: % / Vacuolation, moderate: N: maternal liver
Excerpt: From each uterus, first, viable embryos and their matched placentas were collected in succession within a horn and immediately snap frozen ( n=2–5 per litter ), and subsequent embryos were collected for growth measurements ( n=2–11 per litter ). Additional placentas were collected and placed in 4% paraformaldehyde (PFA) for histological analysis (Block 2 only). Amniotic fluid was collected by needle aspiration from litters euthanized at E11.5 and snap frozen in liquid nitrogen. Embryo livers were collected from litters euthanized at E17.5 and snap frozen in liquid nitrogen. Dam livers were weighed, a portion of the left lateral lobe was placed in 4% PFA for histology, and another portion of the same lobe was snap frozen in liquid nitrogen. A third liver section was obtained from Block 2 dams and fixed in McDowell and Trump’s fixative for electron microscopy (EM). Gross lesions were collected when observed and placed in 4% PFA for histology. Dam kidneys were removed, a cross section was prepared from the right kidney, a longitudinal section was prepared from the left kidney, and both sections were fixed in 4% PFA for histological analysis.
Dam livers, kidneys, and placentas were trimmed and embedded by the NIEHS Mouse Embryo Phenotyping Core. Tissues collected at necropsy were fixed in 4% PFA for 72 h and paraffin embedded, and 5-μm sections were prepared and stained with hematoxylin and eosin (H&E). Pathology was evaluated and a pathology review conducted by S.A.E. Diplomate American College of Veterinary Pathologists (DACVP). Pathology reviews were conducted as an informed approach analysis [e.g., nonblinded analysis; see Sills et al. ([2019])]. Select tissue slides were scanned using the AT2 Scanner (Aperio). Images were then captured for publication using the ImageScope software; version 12.3.0.5056 (Aperio). Serum and urine obtained from dams in Block 2 were analyzed using the AU480 clinical chemistry analyzer (Beckman Coulter Inc.). Reagents and calibration standards used to measure alkaline phosphatase (ALP), alanine aminotransferase (ALT), aspartate aminotransferase (AST), blood urea nitrogen (BUN), serum creatinine, urine creatinine, glucose (Glu), total protein (TP), triglyceride (Trig), high-density lipoprotein (HDL), cholesterol (Chol), and albumin (ALB) were purchased from Beckman Coulter Inc. Reagents for sorbitol dehydrogenase (SDH), total bile acid (TBA), and micro-TP were purchased from Sekisui Diagnostics. The reagent used to measure low-density lipoprotein (LDL) was purchased form Diazyme Laboratories.

N.O=C(O)C(F)(OC(F)(F)C(F)(F)C(F)(F)F)C(F)(F)F (centres unmarked) [GenX, ammonium 2,3,3,3-tetrafluoro-2-(heptafluoropropoxy)propanoate]
Incidence of livers with adverse outcomes including cytoplasmic alteration (all dose groups, E11.5 and E17.5): 100% | CA, any severity: % (E11.5, 2 mg/kg/d): 100% | CA, any severity: N (E11.5, 2 mg/kg/d): 5 | CA, marked: % (E11.5, 2 mg/kg/d): 0% | CA, marked: N (E11.5, 2 mg/kg/d): 0 | CA, minimal to mild: % (E11.5, 2 mg/kg/d): 100% | CA, minimal to mild: N (E11.5, 2 mg/kg/d): 5 | CA, moderate: % (E11.5, 2 mg/kg/d): 0% | CA, moderate: N (E11.5, 2 mg/kg/d): 0 | Focal regions of classic necrosis: % (E11.5, 2 mg/kg/d): 0% | Focal regions of classic necrosis: N (E11.5, 2 mg/kg/d): 0 | Increase in cell death: % (E11.5, 2 mg/kg/d): 80% | Increase in cell death: N (E11.5, 2 mg/kg/d): 4 | Increase in mitotic figures: % (E11.5, 2 mg/kg/d): 60% | Increase in mitotic figures: N (E11.5, 2 mg/kg/d): 3 | Vacuolation, any severity: % (E11.5, 2 mg/kg/d): 0% | Vacuolation, any severity: N (E11.5, 2 mg/kg/d): 0 | Vacuolation, mild: % (E11.5, 2 mg/kg/d): 0% | Vacuolation, mild: N (E11.5, 2 mg/kg/d): 0 | Vacuolation, minimal: % (E11.5, 2 mg/kg/d): 0% | Vacuolation, minimal: N (E11.5, 2 mg/kg/d): 0 | Vacuolation, moderate: % (E11.5, 2 mg/kg/d): 0% | Vacuolation, moderate: N (E11.5, 2 mg/kg/d): 0 | CA, any severity: % (E11.5, 10 mg/kg/d): 100% | CA, any severity: N (E11.5, 10 mg/kg/d): 5 | CA, marked: % (E11.5, 10 mg/kg/d): 60% | CA, marked: N (E11.5, 10 mg/kg/d): 3 | CA, minimal to mild: % (E11.5, 10 mg/kg/d): 0% | CA, minimal to mild: N (E11.5, 10 mg/kg/d): 0 | CA, moderate: % (E11.5, 10 mg/kg/d): 40% | CA, moderate: N (E11.5, 10 mg/kg/d): 2 | Focal regions of classic necrosis: % (E11.5, 10 mg/kg/d): 20% | Focal regions of classic necrosis: N (E11.5, 10 mg/kg/d): 1 | Increase in cell death: % (E11.5, 10 mg/kg/d): 60% | Increase in cell death: N (E11.5, 10 mg/kg/d): 3 | Increase in mitotic figures: % (E11.5, 10 mg/kg/d): 80% | Increase in mitotic figures: N (E11.5, 10 mg/kg/d): 4 | Vacuolation, any severity: % (E11.5, 10 mg/kg/d): 100% | Vacuolation, any severity: N (E11.5, 10 mg/kg/d): 5 | Vacuolation, mild: % (E11.5, 10 mg/kg/d): 0% | Vacuolation, mild: N (E11.5, 10 mg/kg/d): 0 | Vacuolation, minimal: % (E11.5, 10 mg/kg/d): 100% | Vacuolation, minimal: N (E11.5, 10 mg/kg/d): 5 | Vacuolation, moderate: % (E11.5, 10 mg/kg/d): 0% | Vacuolation, moderate: N (E11.5, 10 mg/kg/d): 0 | CA, any severity: % (E17.5, 2 mg/kg/d): 100% | CA, any severity: N (E17.5, 2 mg/kg/d): 5 | CA, marked: % (E17.5, 2 mg/kg/d): 0% | CA, marked: N (E17.5, 2 mg/kg/d): 0 | CA, minimal to mild: % (E17.5, 2 mg/kg/d): 40% | CA, minimal to mild: N (E17.5, 2 mg/kg/d): 2 | CA, moderate: % (E17.5, 2 mg/kg/d): 60% | CA, moderate: N (E17.5, 2 mg/kg/d): 3 | Focal regions of classic necrosis: % (E17.5, 2 mg/kg/d): 20% | Focal regions of classic necrosis: N (E17.5, 2 mg/kg/d): 1 | Increase in cell death: % (E17.5, 2 mg/kg/d): 0% | Increase in cell death: N (E17.5, 2 mg/kg/d): 0 | Increase in mitotic figures: % (E17.5, 2 mg/kg/d): 0% | Increase in mitotic figures: N (E17.5, 2 mg/kg/d): 0 | Vacuolation, any severity: % (E17.5, 2 mg/kg/d): 0% | Vacuolation, any severity: N (E17.5, 2 mg/kg/d): 0 | Vacuolation, mild: % (E17.5, 2 mg/kg/d): 0% | Vacuolation, mild: N (E17.5, 2 mg/kg/d): 0 | Vacuolation, minimal: % (E17.5, 2 mg/kg/d): 0% | Vacuolation, minimal: N (E17.5, 2 mg/kg/d): 0 | Vacuolation, moderate: % (E17.5, 2 mg/kg/d): 0% | Vacuolation, moderate: N (E17.5, 2 mg/kg/d): 0 | CA, any severity: % (E17.5, 10 mg/kg/d): 100% | CA, any severity: N (E17.5, 10 mg/kg/d): 5 | CA, marked: % (E17.5, 10 mg/kg/d): 100% | CA, marked: N (E17.5, 10 mg/kg/d): 5 | CA, minimal to mild: % (E17.5, 10 mg/kg/d): 0% | CA, minimal to mild: N (E17.5, 10 mg/kg/d): 0 | CA, moderate: % (E17.5, 10 mg/kg/d): 0% | CA, moderate: N (E17.5, 10 mg/kg/d): 0 | Focal regions of classic necrosis: % (E17.5, 10 mg/kg/d): 20% | Focal regions of classic necrosis: N (E17.5, 10 mg/kg/d): 1 | Increase in cell death: % (E17.5, 10 mg/kg/d): 100% | Increase in cell death: N (E17.5, 10 mg/kg/d): 5 | Increase in mitotic figures: % (E17.5, 10 mg/kg/d): 0% | Increase in mitotic figures: N (E17.5, 10 mg/kg/d): 0 | Vacuolation, any severity: % (E17.5, 10 mg/kg/d): 100% | Vacuolation, any severity: N (E17.5, 10 mg/kg/d): 5 | Vacuolation, mild: % (E17.5, 10 mg/kg/d): 60% | Vacuolation, mild: N (E17.5, 10 mg/kg/d): 3 | Vacuolation, minimal: % (E17.5, 10 mg/kg/d): 40% | Vacuolation, minimal: N (E17.5, 10 mg/kg/d): 2 | Vacuolation, moderate: % (E17.5, 10 mg/kg/d): 0% | Vacuolation, moderate: N (E17.5, 10 mg/kg/d): 0

From paper PMC7064328 (Environmental Health Perspectives, 2020)
